Measurements published in patent publication US20080103164A1, “USEFUL COMPOUNDS FOR HPV INFECTION” (priority 2004, published 2008).

The compounds below were run on episomal HPV-16 DNA in W12-20850 cells (assay: W-12 cellular assay: episomal HPV-16 DNA quantified by hybrid capture in W12-20850 cells). Details: Human papillomavirus 16, 96 h, four days incubation, inhibition of episomal HPV-16 DNA relative to untreated control.
Assay type: cell-based, HPV16
Experimental: Compounds of the current invention are believed useful in the treatment and/or prophylaxis of conditions and diseases associated with HPV infection. Activity mediated through HPV was determined using the following W-12 cellular assay. The […] cell line used contains HPV16 DNA and was derived from a low-grade cervical dysplasia tissue by Margaret Stanley and subsequently clonally selected by Paul Lambert (University of Wisconsin). One of these clones, […]-20850, contains 1000 copies of episomal HPV16 DNA and was used in the cell-based assay. […]-20850 cells were routinely cultured with a gamma-irradiated (6000 rads) feeder layer of 3T3 cells. Assays, however, were run in the absence of a 3T3 feeder layer. […]-20850 and 3T3 cells were routinely split when they were sub-confluent. […]-20850 were grown in […] Medium which is constituted of 25% DMEM (Gibco BRL, Cat # 12430-047), 75% F12 Media (Gibco BRL, Cat # 11765-021) and 2.5% FBS. The additives include […] Adenine (Sigma, Cat # A-9795), […] Hydrocortisone (Calbiochem, Cat # 386698), […] Bovine Insulin (Sigma, Cat # 1-1882), 8.4 ng/ml cholera toxin (Fluka, Cat # 26694) and 10 ng/ml EGF (Invitrogen, Cat # 13247-051). 3T3 cells were grown in DMEM containing 10% FBS. Cell lines were incubated at 37° C., in the presence of 5% CO2. For the assay, […]-20850 cells were seeded into a 96 well plate-containing compound. Plates were incubated at 37° C. in the presence of 5% CO2, for four days. On the fourth day, cells were lysed and the amount of episomal HPV-16 DNA was quantified using a non-radioactive hybrid capture technique with HPV-16 specific capture and detection probes. The percent inhibition relative to untreated control cells was then determined. The hybrid capture assay is run in a 96 well plate format. Hybridization plates (Nunc Maxisorb Cat # 450320) were coated with a mixture of capture probe and ReactiBind solution for at least 4 hours and then washed with 0.2×SSC, 0.05% Tween-20 (SSCT) prior to blocking with 150 μl/well of 0.2 N NaOH, 1% Igepal, 10 mg/ml hsDNA for 6-8 hours. The hybridization was carried out by mixing 27 μl of lysed cells with 45 μl of denatured detection probe in 6M guanidine isothiocyanate. To prevent evaporation, 50 μl of mineral oil was added to each well. The plate was then heated to 90° C. for 6.5 minutes and the hybridization continued at 42° C. overnight. Assay plates were washed 6 times with SSC/T. Anti-digoxigenin HRP-conjugated Ab (Boehringer Mannheim 1207733, 1:5000) was incubated in the wells for 30 min at room temperature and washed with PBS/0.05% Tween-20. SuperSignal LBA substrate (Pierce Cat # 37070) was added, and chemiluminescence was measured using Wallac 1420 Victor plate reader.

Row | Structure (SMILES) | IC50
1 | COc1ccc(-c2ccnc(N3CCc4c([nH]c5ccccc45)C3c3ccc4c(c3)OCO4)n2)cc1 (stereo not drawn) [Example 32, 1-(1,3-benzodioxol-5-yl)-2-{4-[4-(methyloxy)phenyl]-2-pyrimidinyl}-2,3,4,9-tetrahydro-1H-β-carboline] | 2000 nM
2 | O=C(/C=C/c1ccccc1)N1CCc2c([nH]c3ccccc23)[C@H]1c1ccc2c(c1)CCO2 [Example 30, (1R)-1-(2,3-dihydro-1-benzofuran-5-yl)-2-[(2E)-3-phenyl-2-propenoyl]-2,3,4,9-tetrahydro-1H-β-carboline] | > 20000 nM
3 | Cc1ccc(C2c3[nH]c4ccc(Cl)cc4c3CCN2C(=O)OCc2ccccc2)cc1 (stereo not drawn) [Example 4, Phenylmethyl 6-chloro-1-(4-methylphenyl)-1,3,4,9-tetrahydro-2H-β-carboline-2-carboxylate] | 22 nM
4 | COC(=O)N1CCc2c([nH]c3ccc(Cl)cc23)C1c1ccc(C)cc1 (stereo not drawn) [Example 2, Methyl 6-chloro-1-(4-methylphenyl)-1,3,4,9-tetrahydro-2H-β-carboline-2-carboxylate] | 68 nM
